Data as given in ChEMBL document CHEMBL5465560, “Selectivity Literature for EUbOPEN Chemogenomic Library” (2024).

Assays:
[1] = target: Casein kinase I isoform delta (Homo sapiens, UniProt P48730); test: Selectivity interaction (KinomeScan (DiscoverX)) EUB0001049a CSNK1D; settings: at 1 µM
[2] = target: Cyclin-dependent kinase 4/cyclin D1 (Homo sapiens) (UniProt P11802+P24385); test: (§1) Selectivity interaction (KinomeScan (DiscoverX)) EUB0000666a CDK4; format: protein-complex assay; settings: at 10 µM
[3] = target: CDK4/Cyclin D3 (Homo sapiens) (UniProt P11802+P30281); test: as §1; format: protein-complex assay; settings: at 10 µM
[4] = target: T1, Phosphorylase b kinase gamma catalytic chain, liver/testis isoform (Homo sapiens) (UniProt P15735); test: Selectivity interaction (KinomeScan (DiscoverX)) EUB0000666a PHKG2; settings: at 10 µM
T1 sequence (whole entry): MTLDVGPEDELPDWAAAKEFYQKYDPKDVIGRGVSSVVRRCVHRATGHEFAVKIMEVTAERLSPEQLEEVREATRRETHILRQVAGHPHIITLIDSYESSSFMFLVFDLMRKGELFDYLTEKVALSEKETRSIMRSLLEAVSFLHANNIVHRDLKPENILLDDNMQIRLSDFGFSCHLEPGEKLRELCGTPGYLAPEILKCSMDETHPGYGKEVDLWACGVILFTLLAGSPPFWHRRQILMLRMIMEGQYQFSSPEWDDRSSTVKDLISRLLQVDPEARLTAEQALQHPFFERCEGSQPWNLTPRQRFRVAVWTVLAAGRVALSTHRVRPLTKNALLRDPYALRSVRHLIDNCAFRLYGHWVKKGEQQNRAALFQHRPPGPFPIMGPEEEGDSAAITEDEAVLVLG

[5] = target: Casein kinase I isoform epsilon (Homo sapiens, UniProt P49674); test: Selectivity interaction (KinomeScan (DiscoverX)) EUB0000666a CSNK1E; settings: at 10 µM
[6] = target: Non-receptor tyrosine-protein kinase TYK2 (Homo sapiens, UniProt P29597); test: Selectivity interaction (KinomeScan (DiscoverX)) EUB0000229b TYK2; settings: at 10 µM
[7] = target: cAMP-dependent protein kinase catalytic subunit beta (Homo sapiens) (UniProt P22694); test: Selectivity interaction (KinomeScan (DiscoverX)) EUB0001079a PRKACB; settings: at 1 µM
[8] = target: Ephrin type-A receptor 4 (Homo sapiens, UniProt P54764); test: Selectivity interaction (Kinase panel (33PanQinase(R) Activity Assay)) EUB0000877a EPHA4
[9] = target: T2, Leucine-rich repeat serine/threonine-protein kinase 2 (Homo sapiens, UniProt Q5S007); test: Selectivity interaction (Kinase panel (Invitrogen)) EUB0000639a LRRK2; settings: at 200 nM
T2 sequence (Q5S007 whole entry): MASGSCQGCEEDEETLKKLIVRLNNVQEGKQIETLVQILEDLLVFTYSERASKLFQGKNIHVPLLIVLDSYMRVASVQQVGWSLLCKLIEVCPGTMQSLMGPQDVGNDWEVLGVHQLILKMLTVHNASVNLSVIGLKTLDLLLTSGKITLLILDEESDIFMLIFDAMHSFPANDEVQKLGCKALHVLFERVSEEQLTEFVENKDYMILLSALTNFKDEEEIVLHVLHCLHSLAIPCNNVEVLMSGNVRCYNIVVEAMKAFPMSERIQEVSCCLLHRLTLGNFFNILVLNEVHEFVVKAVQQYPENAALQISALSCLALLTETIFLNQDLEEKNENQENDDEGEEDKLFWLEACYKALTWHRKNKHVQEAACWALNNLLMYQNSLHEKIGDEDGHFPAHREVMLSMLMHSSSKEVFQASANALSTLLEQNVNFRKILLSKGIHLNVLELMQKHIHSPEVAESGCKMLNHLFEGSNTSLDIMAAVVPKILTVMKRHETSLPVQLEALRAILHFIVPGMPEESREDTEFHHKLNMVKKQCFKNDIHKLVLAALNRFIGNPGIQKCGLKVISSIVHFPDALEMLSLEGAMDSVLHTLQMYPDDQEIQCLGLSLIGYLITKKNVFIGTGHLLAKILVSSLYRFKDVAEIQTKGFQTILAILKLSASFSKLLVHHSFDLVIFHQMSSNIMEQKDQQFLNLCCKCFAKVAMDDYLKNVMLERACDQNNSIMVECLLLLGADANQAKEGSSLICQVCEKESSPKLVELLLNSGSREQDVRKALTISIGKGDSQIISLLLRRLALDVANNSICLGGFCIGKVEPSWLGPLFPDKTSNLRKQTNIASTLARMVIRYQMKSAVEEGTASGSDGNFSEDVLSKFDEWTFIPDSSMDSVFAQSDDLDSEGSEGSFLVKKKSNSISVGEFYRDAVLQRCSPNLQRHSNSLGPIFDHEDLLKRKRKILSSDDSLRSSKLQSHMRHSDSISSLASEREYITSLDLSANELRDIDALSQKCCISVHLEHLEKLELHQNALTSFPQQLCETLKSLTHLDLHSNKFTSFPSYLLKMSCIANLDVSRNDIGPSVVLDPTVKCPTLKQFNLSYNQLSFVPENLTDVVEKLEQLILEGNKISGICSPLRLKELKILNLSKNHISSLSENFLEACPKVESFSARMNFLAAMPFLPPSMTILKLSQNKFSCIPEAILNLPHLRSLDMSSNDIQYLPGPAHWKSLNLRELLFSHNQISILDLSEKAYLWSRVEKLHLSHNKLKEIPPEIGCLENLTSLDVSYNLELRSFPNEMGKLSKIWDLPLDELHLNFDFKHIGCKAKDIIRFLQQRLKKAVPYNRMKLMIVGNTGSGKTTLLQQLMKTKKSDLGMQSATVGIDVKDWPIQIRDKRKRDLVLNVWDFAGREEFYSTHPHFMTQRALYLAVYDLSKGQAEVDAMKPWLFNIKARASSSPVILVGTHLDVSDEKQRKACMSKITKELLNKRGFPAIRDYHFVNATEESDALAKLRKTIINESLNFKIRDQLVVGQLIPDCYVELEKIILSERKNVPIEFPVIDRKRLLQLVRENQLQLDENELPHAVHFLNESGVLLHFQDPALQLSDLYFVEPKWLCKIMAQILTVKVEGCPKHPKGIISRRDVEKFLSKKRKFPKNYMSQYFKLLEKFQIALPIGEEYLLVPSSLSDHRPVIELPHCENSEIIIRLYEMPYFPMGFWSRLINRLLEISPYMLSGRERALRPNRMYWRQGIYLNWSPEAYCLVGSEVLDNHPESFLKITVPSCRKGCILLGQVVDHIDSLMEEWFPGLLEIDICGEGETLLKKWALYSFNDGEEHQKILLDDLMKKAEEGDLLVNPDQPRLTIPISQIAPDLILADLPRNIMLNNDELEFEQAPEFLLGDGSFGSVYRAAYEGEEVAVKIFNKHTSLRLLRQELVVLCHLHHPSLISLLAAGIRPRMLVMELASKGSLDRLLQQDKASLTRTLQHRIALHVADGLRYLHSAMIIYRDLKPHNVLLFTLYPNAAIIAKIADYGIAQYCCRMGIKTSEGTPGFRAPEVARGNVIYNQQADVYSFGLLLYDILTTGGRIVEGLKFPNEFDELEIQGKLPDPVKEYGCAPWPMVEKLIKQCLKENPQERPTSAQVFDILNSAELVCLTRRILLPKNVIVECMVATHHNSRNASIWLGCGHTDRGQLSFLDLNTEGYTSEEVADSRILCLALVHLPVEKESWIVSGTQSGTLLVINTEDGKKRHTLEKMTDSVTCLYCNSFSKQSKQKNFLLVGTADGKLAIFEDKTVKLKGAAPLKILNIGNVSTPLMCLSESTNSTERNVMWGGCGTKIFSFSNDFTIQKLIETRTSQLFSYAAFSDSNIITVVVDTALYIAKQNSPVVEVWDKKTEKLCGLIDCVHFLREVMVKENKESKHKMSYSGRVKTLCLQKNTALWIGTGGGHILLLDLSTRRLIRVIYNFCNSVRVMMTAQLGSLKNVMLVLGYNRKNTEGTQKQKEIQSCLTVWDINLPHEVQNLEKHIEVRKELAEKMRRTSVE

[10] = target: Serine/threonine-protein kinase 38-like (Homo sapiens) (UniProt Q9Y2H1); test: Selectivity interaction (ActivX KiNativ screen (kinase selectivity in THP-1 cell lysates)) EUB0000639a STK38L; format: subcellular; settings: lysate, at 1 µM
[11] = target: Mitogen-activated protein kinase 11 (Homo sapiens) (UniProt Q15759); test: Selectivity interaction (ActivX KiNativ screen (kinase selectivity in THP-1 cell lysates)) EUB0000639a MAPK11; format: subcellular; settings: lysate
Mitogen-activated protein kinase 11 (Homo sapiens), sequence (Q15759 whole entry): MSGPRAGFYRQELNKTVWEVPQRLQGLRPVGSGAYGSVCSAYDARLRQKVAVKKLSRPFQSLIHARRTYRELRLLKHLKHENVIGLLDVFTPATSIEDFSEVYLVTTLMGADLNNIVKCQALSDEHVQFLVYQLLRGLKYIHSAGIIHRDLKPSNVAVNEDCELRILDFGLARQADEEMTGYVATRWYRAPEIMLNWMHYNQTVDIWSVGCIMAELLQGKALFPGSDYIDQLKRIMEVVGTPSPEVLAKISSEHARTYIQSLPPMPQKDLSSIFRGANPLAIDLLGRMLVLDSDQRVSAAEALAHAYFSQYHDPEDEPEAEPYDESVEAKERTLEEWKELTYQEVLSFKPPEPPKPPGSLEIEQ

[12] = target: Cyclin-dependent kinase-like 3 (Homo sapiens) (UniProt Q8IVW4); test: Selectivity interaction (KinomeScan (DiscoverX)) EUB0000595a CDKL3; settings: at 10 µM
[13] = target: Wee1-like protein kinase (Homo sapiens) (UniProt P30291); test: Selectivity interaction (KinomeScan (DiscoverX)) EUB0000595a WEE1; settings: at 10 µM
[14] = target: Death-associated protein kinase 1 (Homo sapiens, UniProt P53355); test: Selectivity interaction (KinomeScan (DiscoverX)) EUB0000595a DAPK1; settings: at 10 µM
[15] = target: T3, Myosin light chain kinase family member 4 (Homo sapiens) (UniProt Q86YV6); test: Selectivity interaction (KinomeScan (DiscoverX)) EUB0000092b MYLK4; settings: at 10 µM
T3 sequence (whole entry): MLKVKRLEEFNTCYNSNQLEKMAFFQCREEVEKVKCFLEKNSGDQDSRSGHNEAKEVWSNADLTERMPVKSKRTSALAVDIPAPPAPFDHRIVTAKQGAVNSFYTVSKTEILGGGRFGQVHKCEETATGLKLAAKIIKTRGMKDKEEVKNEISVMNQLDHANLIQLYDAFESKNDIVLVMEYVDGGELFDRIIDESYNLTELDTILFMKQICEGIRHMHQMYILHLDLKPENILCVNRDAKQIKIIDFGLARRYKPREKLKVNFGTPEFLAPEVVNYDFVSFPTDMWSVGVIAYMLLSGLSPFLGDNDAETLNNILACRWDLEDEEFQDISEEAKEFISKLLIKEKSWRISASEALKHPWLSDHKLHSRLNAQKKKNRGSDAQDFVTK

[16] = target: SRSF protein kinase 2 (Homo sapiens) (UniProt P78362); test: Selectivity interaction (Ambit KINOMEscan and KiNATiv profiling in Jurkat cells) EUB0000090b SRPK2; format: cell-based; settings: at 1 µM
[17] = target: Vascular endothelial growth factor receptor 3 (Homo sapiens, UniProt P35916); test: Selectivity interaction (KinomeScan (DiscoverX)) EUB0000045b FLT4
Vascular endothelial growth factor receptor 3, sequence (P35916 whole entry): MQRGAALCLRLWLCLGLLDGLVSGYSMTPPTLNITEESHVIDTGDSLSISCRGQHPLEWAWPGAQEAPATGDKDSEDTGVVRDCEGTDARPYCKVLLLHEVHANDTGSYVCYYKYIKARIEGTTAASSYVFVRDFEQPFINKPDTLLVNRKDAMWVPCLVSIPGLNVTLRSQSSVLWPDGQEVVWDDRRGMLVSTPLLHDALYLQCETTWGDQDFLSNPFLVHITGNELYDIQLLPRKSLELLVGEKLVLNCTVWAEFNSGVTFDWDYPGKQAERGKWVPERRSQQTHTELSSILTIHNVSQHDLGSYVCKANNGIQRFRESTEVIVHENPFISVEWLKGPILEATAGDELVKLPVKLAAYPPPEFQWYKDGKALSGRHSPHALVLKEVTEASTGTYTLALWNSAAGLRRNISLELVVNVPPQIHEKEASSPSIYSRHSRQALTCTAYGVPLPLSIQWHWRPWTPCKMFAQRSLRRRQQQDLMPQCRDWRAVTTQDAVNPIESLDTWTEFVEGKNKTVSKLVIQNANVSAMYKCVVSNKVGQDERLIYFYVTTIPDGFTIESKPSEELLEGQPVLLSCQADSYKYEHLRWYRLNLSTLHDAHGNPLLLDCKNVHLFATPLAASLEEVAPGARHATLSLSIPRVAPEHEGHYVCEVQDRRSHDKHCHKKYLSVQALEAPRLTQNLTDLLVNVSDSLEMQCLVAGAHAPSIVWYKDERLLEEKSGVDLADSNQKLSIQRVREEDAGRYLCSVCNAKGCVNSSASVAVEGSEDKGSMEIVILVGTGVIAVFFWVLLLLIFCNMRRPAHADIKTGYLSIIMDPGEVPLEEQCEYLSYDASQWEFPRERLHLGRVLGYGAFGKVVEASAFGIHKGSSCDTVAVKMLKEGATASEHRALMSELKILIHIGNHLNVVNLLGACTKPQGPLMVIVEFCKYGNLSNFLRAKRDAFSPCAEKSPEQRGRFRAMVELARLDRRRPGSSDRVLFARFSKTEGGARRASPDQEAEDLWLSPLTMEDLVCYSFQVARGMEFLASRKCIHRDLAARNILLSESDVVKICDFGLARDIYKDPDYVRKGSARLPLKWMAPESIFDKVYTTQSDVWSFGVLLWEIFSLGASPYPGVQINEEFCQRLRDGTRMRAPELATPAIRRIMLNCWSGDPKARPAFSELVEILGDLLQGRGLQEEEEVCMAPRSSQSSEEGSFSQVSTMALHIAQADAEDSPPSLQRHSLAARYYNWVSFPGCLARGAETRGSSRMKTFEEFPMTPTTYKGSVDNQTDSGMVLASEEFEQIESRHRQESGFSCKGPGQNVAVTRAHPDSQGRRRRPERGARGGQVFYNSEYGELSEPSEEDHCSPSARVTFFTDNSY

[18] = target: T2, Leucine-rich repeat serine/threonine-protein kinase 2; settings: at 10 µM
[19] = target: Ribosomal protein S6 kinase alpha-2 (Homo sapiens) (UniProt Q15349); settings: at 10 µM
[20] = target: G protein-coupled receptor kinase 6 (Homo sapiens) (UniProt P43250); test: Selectivity interaction (ActivX KiNativ screen (ex vivo kinase selectivity in human PBMCs)) EUB0001619a GRK6; format: cell-based; settings: PBMC, at 1 µM
[21] = target: Rho-associated protein kinase 1 (Homo sapiens) (UniProt Q13464); test: Selectivity interaction (Upstate Kinase Profiler service (Millipore)) EUB0000056c ROCK1; settings: at 1 µM
[22] = target: Cyclin-dependent kinase 5 (Homo sapiens, UniProt Q00535); test: Selectivity interaction (KinomeScan (DiscoverX)) EUB0000655a CDK5; settings: at 10 µM
[23] = target: Misshapen-like kinase 1 (Homo sapiens, UniProt Q8N4C8); test: Selectivity interaction (KinomeScan (DiscoverX)) EUB0000695a MINK1; settings: at 100 nM
[24] = target: Phosphatidylinositol 4-kinase type 2-beta (Homo sapiens) (UniProt Q8TCG2); test: Selectivity interaction (Adapta Assay) EUB0001632a PI4K2B; settings: at 10 µM
[25] = target: Rho-associated protein kinase 2 (Homo sapiens, UniProt O75116); test: Selectivity interaction (Kinase panel (Z-LYTE Assay)) EUB0001632a ROCK2; settings: at 10 µM
[26] = target: Aurora kinase B (Homo sapiens, UniProt Q96GD4); test: Selectivity interaction (ProQinase) EUB0000171b AURKB
Aurora kinase B, sequence (Q96GD4 whole entry): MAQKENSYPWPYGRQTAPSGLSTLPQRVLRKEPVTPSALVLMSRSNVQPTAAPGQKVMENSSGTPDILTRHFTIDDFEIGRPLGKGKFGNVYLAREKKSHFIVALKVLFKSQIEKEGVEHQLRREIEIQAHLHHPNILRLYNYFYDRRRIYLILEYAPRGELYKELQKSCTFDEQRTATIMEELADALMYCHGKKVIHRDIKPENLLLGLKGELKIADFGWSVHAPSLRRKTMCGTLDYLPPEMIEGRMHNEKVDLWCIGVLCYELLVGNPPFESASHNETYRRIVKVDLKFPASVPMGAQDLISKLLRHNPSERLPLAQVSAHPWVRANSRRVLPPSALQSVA

Casein kinase I isoform delta, sequence (P48730 whole entry, looked up, canonical isoform): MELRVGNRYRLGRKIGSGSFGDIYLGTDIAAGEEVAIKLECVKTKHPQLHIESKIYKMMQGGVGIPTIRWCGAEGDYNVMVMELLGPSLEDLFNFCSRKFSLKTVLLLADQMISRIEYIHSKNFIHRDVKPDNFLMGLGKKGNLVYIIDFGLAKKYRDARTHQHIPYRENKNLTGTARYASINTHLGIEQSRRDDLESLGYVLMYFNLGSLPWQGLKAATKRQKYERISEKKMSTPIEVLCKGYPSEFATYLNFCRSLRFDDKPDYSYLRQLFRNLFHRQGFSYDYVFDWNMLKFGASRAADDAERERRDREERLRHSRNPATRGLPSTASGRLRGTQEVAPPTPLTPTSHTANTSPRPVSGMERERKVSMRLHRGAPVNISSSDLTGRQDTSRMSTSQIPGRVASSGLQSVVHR

COc1cc(Nc2nc(C)cc(-c3cnn4nc(OC)ccc34)n2)cc(C(F)(F)F)c1
% of control [1]: 90%

O=C(NOC[C@H](O)CO)c1ccc(F)c(F)c1Nc1ccc(I)cc1F
% of control [2]: 93%
% of control [3]: 84%
% of control [4]: 93%
% of control [5]: 100%

COc1cc(N(C)c2ccnc3ccc(C(F)(F)F)cc23)cc(OC)c1OC
% binding [6]: 89%

Nc1cnc(N2CCc3cc(S(=O)(=O)Nc4c(F)cc(Cl)cc4F)cc(N4CCCC4=O)c32)nc1 [TP-020n]
% of control [7]: 100%

CCC(=O)N1CC[C@H](Nc2ncnc3c2CN(c2cnc(OC)c(C(F)(F)F)c2)CC3)C1 [LENIOLISIB]
IC50 [8]: > 10 µM

CC[C@@H]1[C@H](F)C(=O)N[C@@H]1COc1nccc2cc(C(N)=O)c(OC)cc12 [ZIMLOVISERTIB]
% of inhibition [9]: 85.1%
% of inhibition [10]: 47.8%
% of inhibition ([11]; at 0.01 µM): -7.8%
% of inhibition ([11]; at 0.04 µM): -35.7%
% of inhibition ([11]; at 0.2 µM): -16.6%
% of inhibition ([11]; at 1 µM): -3.6%
% of inhibition ([11]; at 5 µM): -19.3%

COCC(=O)NC/C=C/c1ccc2ncnc(Nc3ccc(Oc4ccc(C)nc4)c(C)c3)c2c1 [CP-724714]
% of control [12]: 100%
% of control [13]: 100%
% of control [14]: 76%

CCC(=O)N1CCN(c2ccc(-n3c(=O)ccc4cnc5ccc(-c6cnc7ccccc7c6)cc5c43)cc2C(F)(F)F)CC1
% of control [15]: 83%

CN(C)C/C=C/C(=O)Nc1ccc(C(=O)N2CCCC(Nc3ncc(Cl)c(-c4c[nH]c5ccccc45)n3)C2)cc1 (configuration not stated)
% of control [16]: 98%

C=CC(=O)Nc1cc(-n2c(=O)ccc3cnc4ccc(-c5ccc(NS(C)(=O)=O)cc5)cc4c32)ccc1C
% of control ([17]; at 1 µM): 72%
% of control ([17]; at 10 µM): 100%

Cc1cc([C@@H](C)Nc2ccccc2C(=O)O)c2nc(N3CCOCC3)cc(=O)n2c1 [AZD-6482]
% of control [18]: 100%
% of control [19]: 98%

N#Cc1cccc(-c2c[nH]c3ncnc(N4CCOCC4)c23)c1
% of inhibition [20]: 11%

Cc1ccc(-c2ccc3c(ccc4sc5c(c43)NC[C@@H](C)NC5=O)n2)cn1
% of inhibition [21]: -13%

CN(C)CCOc1ccc(-c2nc(-c3ccncc3)c(-c3ccc4c(c3)CC/C4=N\O)[nH]2)cc1
% of control [22]: 100%

Cc1cc(F)c(C(=O)Nc2cccc(-c3nncn3C(C)C)n2)cc1-n1cnc(C2CC2)c1
% of control [23]: 83%

Cn1cc(-n2cnc3c(NCc4nc5cc(Cl)c(Cl)cc5[nH]4)nc(N4CCOCC4)nc32)cn1
% of inhibition [24]: -1.89%
% of control [25]: 3.57%

C=CC(=O)Nc1cccc(C(=O)Nc2ccc(Nc3cc(-c4[nH]c(SC)nc4C)ccn3)cc2)c1
% of control ([26]; at 1 µM): 73%
% of control ([26]; at 5 µM): 40%
